Data reported in patent US20090054421A1, “Pyrimidothiophene Compounds Having HSP90 Inhibitory Activity” (Vernalis R & D Limited, priority 2005, published 2009).

The compounds below were run against T1, human full-length HSP90 (Homo sapiens, UniProt P08238) (assay: Fluorescence polarization assay (competitive displacement of fluorescein-labelled probe from HSP90)). Conditions: activity range A or B.
T1 construct: E. coli expressed human full-length HSP90 protein, purified >95%; made in house; host or cells: E. coli
T1 sequence (P08238 whole entry): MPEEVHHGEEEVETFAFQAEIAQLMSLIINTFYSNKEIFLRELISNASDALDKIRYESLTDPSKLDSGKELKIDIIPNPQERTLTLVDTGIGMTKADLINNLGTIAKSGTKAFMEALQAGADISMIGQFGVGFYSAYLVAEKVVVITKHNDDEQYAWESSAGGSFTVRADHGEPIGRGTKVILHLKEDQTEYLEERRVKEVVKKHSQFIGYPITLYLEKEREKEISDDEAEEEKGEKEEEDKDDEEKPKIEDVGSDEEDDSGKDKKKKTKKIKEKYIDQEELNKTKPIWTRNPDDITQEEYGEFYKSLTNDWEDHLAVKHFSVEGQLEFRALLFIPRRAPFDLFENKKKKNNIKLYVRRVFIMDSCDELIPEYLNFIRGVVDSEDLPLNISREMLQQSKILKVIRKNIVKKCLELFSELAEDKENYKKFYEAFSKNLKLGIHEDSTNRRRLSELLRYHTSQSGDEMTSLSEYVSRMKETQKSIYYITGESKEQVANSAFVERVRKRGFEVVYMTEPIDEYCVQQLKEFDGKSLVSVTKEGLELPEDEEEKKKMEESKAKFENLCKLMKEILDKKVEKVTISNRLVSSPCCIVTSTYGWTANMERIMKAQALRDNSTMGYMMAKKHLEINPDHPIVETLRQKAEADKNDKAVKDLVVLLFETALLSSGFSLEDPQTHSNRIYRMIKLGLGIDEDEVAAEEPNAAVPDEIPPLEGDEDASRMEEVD
Assay type: binding
Text: Fluorescence Polarization Assay
Fluorescence polarization {also known as fluorescence anisotropy} measures the rotation of a fluorescing species in solution, where the larger molecule the more polarized the fluorescence emission. When the fluorophore is excited with polarized light, the emitted light is also polarized. The molecular size is proportional to the polarization of the fluorescence emission.
The fluoroscein-labelled probe—
binds to HSP90 {full-length human, full-length yeast or N-terminal domain HSP90} and the anisotropy {rotation of the probe:protein complex} is measured.
Test compound is added to the assay plate, left to equilibrate and the anisotropy measured again. Any change in anisotropy is due to competitive binding of compound to HSP90, thereby releasing probe.
Chemicals are of the highest purity commercially available and all aqueous solutions are made up in AR water. • 1) Costar 96-well black assay plate #3915 • 2) Assay buffer of (a) 100 mM Tris pH7.4; (b) 20 mM KCl; (c) 6 mM MgCl2. Stored at room temperature. • 3) BSA (bovine serum albumen) 10 mg/ml (New England Biolabs # B9001S) • 4) 20 mM probe in 100% DMSO stock concentration. Stored in the dark at RT. Working concentration is 200 nM diluted in AR water and stored at 4° C., Final concentration in assay 80 nM. • 5) E. coli expressed human full-length HSP90 protein, purified >95% (see, e.g., Panaretou et al., 1998) and stored in 50 μL aliquots at −80° C.
• 1) Add 100 μl 1× buffer to wells 11A and 12A (=FP BLNK) • 2) Prepare assay mix—all reagents are kept on ice with a lid on the bucket as the probe is light-sensitive.
• 3) Aliquot 100 μl assay mix to all other wells • 4) Seal plate and leave in dark at room temp for 20 minutes to equilibrate Compound Dilution Plate—1×3 dilution series • 1) In a clear 96-well v-bottom plate—{# VWR 007/008/257} add 10 μl 100% DMSO to wells B1 to H11 • 2) To wells A1 to A11 add 17.5 μl 100% DMSO • 3) Add 2.5 μl cpd to A1. This gives 2.5 mM {50×} stock cpd—assuming cpds 20 mM. • 4) Repeat for wells A2 to A10. Control in columns 11 and 12. • 5) Transfer 5 μl from row A to row B—not column 12. Mix well. • 6) Transfer 5 μl from row B to row C. […] In column 11 {provides standard curve} only add compound B11-H11. Add 2 μl of 100 mM standard cpd to wells B12-H12 {is positive control} • 13) The Z′ factor is calculated from zero controls and positive wells. It typically gives a value of 0.7-0.9.
The compounds tested in the above assay were assigned to one of two activity ranges, namely A=<10 μM; B=>10 μM, and those assignments are reported above.

Row | IC50 [µM] | SMILES
1 | < 10 | CCNC(=O)c1cc2c(C(=NOC)c3ccc4c(c3)OCCN4C)nc(N)nc2s1 (mixture of isomers) [Example 1, 2-Amino-4-[methoxyimino-(4-methyl-3,4-dihydro-2H-benzo[1,4]oxazin-7-yl)-methyl]-thieno[2,3-d]pyrimidine-6-carboxylic acid ethylamide]
2 | < 10 | CCNC(=O)c1cc2c(C(=NO)c3ccc4c(c3)OCCN4C)nc(N)nc2s1 (mixture of isomers) [Example 2, 2-Amino-4-[hydroxyimino-(4-methyl-3,4-dihydro-2H-benzo[1,4]oxazin-7-yl)-methyl]-thieno[2,3-d]pyrimidine-6-carboxylic acid ethylamide]
3 | < 10 | CCNC(=O)c1cc2c(C(=NOCCN3CCCC3)c3ccc4c(c3)OCO4)nc(N)nc2s1 (mixture of isomers) [Example 28]
4 | < 10 | CCNC(=O)c1cc2c(C(=NOCCN3CCCC3=O)c3ccc4c(c3)OCO4)nc(N)nc2s1 (mixture of isomers) [Example 29]
5 | < 10 | CCNC(=O)c1cc2c(C(=NOCCN(CC)CC)c3cc4c(cc3Cl)OCO4)nc(N)nc2s1 (mixture of isomers) [Example 30]
6 | < 10 | CC(C)NC(=O)c1cc2c(C(=NOCCN3CCCC3=O)c3ccc4c(c3)OCO4)nc(N)nc2s1 (mixture of isomers) [Example 46]
7 | < 10 | CC(C)(C)NC(=O)c1cc2c(C(=NOCCN3CCCC3)c3ccc4c(c3)OCO4)nc(N)nc2s1 (mixture of isomers) [Example 54]
8 | < 10 | COCCNC(=O)c1cc2c(C(=NOCCN3CCCC3=O)c3ccc4c(c3)OCO4)nc(N)nc2s1 (mixture of isomers) [Example 57]
9 | < 10 | CCNC(=O)c1cc2c(C(=NO)c3ccc4c(c3)OCO4)nc(N)nc2s1 [Example 3, 2-Amino-4-(benzo[1,3]dioxol-5-yl-hydroxyimino-methyl)-thieno[2,3-d]pyrimidine-6-carboxylic acid ethylamide]
10 | < 10 | CCOC(=O)c1cc2c(C(=NOC)c3ccc4c(c3)OCO4)nc(N)nc2s1 [Example 4, 2-Amino-4-(benzo[1,3]dioxol-5-yl-methoxyimino-methyl)-thieno[2,3-d]pyrimidine-6-carboxylic acid ethyl ester]
11 | < 10 | CCNC(=O)c1cc2c(C(=NO)c3ccccn3)nc(N)nc2s1 [Example 5]
12 | < 10 | CCNC(=O)c1cc2c(C(=NO)c3cc4c(cc3Cl)OCO4)nc(N)nc2s1 [Example 6]
13 | > 10 | CCNC(=O)c1cc2c(C(=NO)c3cccnc3)nc(N)nc2s1 [Example 7]
14 | < 10 | CCNC(=O)c1cc2c(C(=NO)c3cccc(OC)c3)nc(N)nc2s1 [Example 9]
15 | < 10 | CCNC(=O)c1cc2c(C(=NO)c3ccc(Cl)cc3)nc(N)nc2s1 [Example 10]
16 | > 10 | CCNC(=O)c1cc2c(C(=NO)c3ccccc3Cl)nc(N)nc2s1 [Example 11]
17 | < 10 | CCNC(=O)c1cc2c(C(=NO)c3ccc(OC)cc3)nc(N)nc2s1 [Example 12]
18 | < 10 | CCNC(=O)c1cc2c(C(=NO)c3cccc(Cl)c3)nc(N)nc2s1 [Example 13]
19 | < 10 | CCNC(=O)c1cc2c(C(=NO)c3ccc4ccccc4c3)nc(N)nc2s1 [Example 14]

Row | IC50 [µM] | SMILES
20 | < 10 | CCNC(=O)c1cc2c(C(=NO)c3ccc(OC)c(OC)c3)nc(N)nc2s1 [Example 15]
21 | < 10 | CCNC(=O)c1cc2c(C(=NO)c3ccc4c(c3)CCO4)nc(N)nc2s1 [Example 16]
22 | < 10 | CCNC(=O)c1cc2c(C(=NO)c3ccco3)nc(N)nc2s1 [Example 17]
23 | < 10 | CCNC(=O)c1cc2c(C(=NO)c3ccc4[nH]ccc4c3)nc(N)nc2s1 [Example 18]
24 | < 10 | CCNC(=O)c1cc2c(C(=NO)c3ccoc3)nc(N)nc2s1 [Example 19]
25 | < 10 | Nc1nc(C(=NO)c2ccc3c(c2)OCO3)c2cc(C(=O)NC3CC3)sc2n1 [Example 20, 2-Amino-4-(benzo[1,3]dioxol-5-yl-hydroxyimino-methyl)-thieno[2,3-d]pyrimidine-6-carboxylic acid cyclopropylamide]
26 | < 10 | CC(C)(C)NC(=O)c1cc2c(C(=NO)c3ccc4c(c3)OCO4)nc(N)nc2s1 [Example 21]
27 | < 10 | COCCNC(=O)c1cc2c(C(=NO)c3ccc4c(c3)OCO4)nc(N)nc2s1 [Example 22]
28 | < 10 | CN(C)CCCNC(=O)c1cc2c(C(=NO)c3ccc4c(c3)OCO4)nc(N)nc2s1 [Example 23]
29 | < 10 | CN(C)CCNC(=O)c1cc2c(C(=NO)c3ccc4c(c3)OCO4)nc(N)nc2s1 [Example 24]
30 | < 10 | Nc1nc(C(=NO)c2ccc3c(c2)OCO3)c2cc(C(=O)NCC(F)(F)F)sc2n1 [Example 25]
31 | < 10 | CCNC(=O)c1cc2c(C(=NOCCN(CC)CC)c3ccc4c(c3)OCO4)nc(N)nc2s1 [Example 26, 2-Amino-4-(benzo[1,3]dioxol-5-yl-(2-diethylamino-ethoxyimino)-methyl]-thieno[2,3-d]pyrimidine-6-carboxylic acid ethylamide]
32 | < 10 | CCNC(=O)c1cc2c(C(=NOCCN(CC)CC)c3cccc(OC)c3)nc(N)nc2s1 [Example 31]
33 | < 10 | CCNC(=O)c1cc2c(C(=NOCCN(CC)CC)c3ccc4c(c3)OCCO4)nc(N)nc2s1 [Example 32]
34 | < 10 | CCNC(=O)c1cc2c(C(=NOCCN(CC)CC)c3ccc(OC)cc3)nc(N)nc2s1 [Example 33]
35 | < 10 | CCNC(=O)c1cc2c(C(=NOCC(=O)O)c3ccc4c(c3)OCO4)nc(N)nc2s1 [Example 34]
36 | < 10 | CCNC(=O)c1cc2c(C(=NOCC(=O)N3CCCCC3)c3ccc4c(c3)OCO4)nc(N)nc2s1 [Example 35]
37 | > 10 | CCNC(=O)c1cc2c(C(=NOCCN(CC)CC)c3ccco3)nc(N)nc2s1 [Example 37]
38 | > 10 | CCNC(=O)c1cc2c(C(=NOCCN(CC)CC)c3cccs3)nc(N)nc2s1 [Example 38]

Row | IC50 [µM] | SMILES
39 | > 10 | CCNC(=O)c1cc2c(C(=NOCCN3CCCC3)c3cccs3)nc(N)nc2s1 [Example 39]
40 | < 10 | CCNC(=O)c1cc2c(C(=NOCCN3CCCC3=O)c3cccs3)nc(N)nc2s1 [Example 40]
41 | < 10 | CCNC(=O)c1cc2c(C(=NOCCN(CC)CC)c3ccco3)nc(N)nc2s1 [Example 41]
42 | > 10 | CCNC(=O)c1cc2c(C(=NOCCN(CC)CC)c3ccncc3)nc(N)nc2s1 [Example 42]
43 | < 10 | CCNC(=O)c1cc2c(C(=NOCCN3CCCC3)c3ccco3)nc(N)nc2s1 [Example 43]
44 | < 10 | CCN(CC)CCON=C(c1ccc2c(c1)OCO2)c1nc(N)nc2sc(C(=O)NC(C)C)cc12 [Example 44]
45 | < 10 | CC(C)NC(=O)c1cc2c(C(=NOCCN3CCCC3)c3ccc4c(c3)OCO4)nc(N)nc2s1 [Example 45]
46 | < 10 | CCNC(=O)c1cc2c(C(=NOCCN3CCCC3=O)c3ccco3)nc(N)nc2s1 [Example 47]
47 | > 10 | CCNC(=O)c1cc2c(C(=NOCCN3CCCC3)c3ccncc3)nc(N)nc2s1 [Example 48]
48 | < 10 | CCNC(=O)c1cc2c(C(=NO)c3cccs3)nc(N)nc2s1 [Example 50]
49 | > 10 | CCNC(=O)c1cc2c(C(=NO)c3ccncc3)nc(N)nc2s1 [Example 51]
50 | < 10 | CCN(CC)CCON=C(c1ccc2c(c1)OCO2)c1nc(N)nc2sc(C(=O)NCCOC)cc12 [Example 52]
51 | < 10 | COCCNC(=O)c1cc2c(C(=NOCCN3CCCC3)c3ccc4c(c3)OCO4)nc(N)nc2s1 [Example 53]
52 | < 10 | CCN(CC)CCON=C(c1ccc2c(c1)OCO2)c1nc(N)nc2sc(C(=O)NC(C)(C)C)cc12 [Example 55]
53 | < 10 | CC(C)(C)NC(=O)c1cc2c(C(=NOCCN3CCCC3=O)c3ccc4c(c3)OCO4)nc(N)nc2s1 [Example 58]
54 | < 10 | CCN(CC)CCON=C(c1ccc2c(c1)OCO2)c1nc(N)nc2sc(C(=O)NC3CC3)cc12 [Example 59]
55 | < 10 | Nc1nc(C(=NOCCN2CCCC2)c2ccc3c(c2)OCO3)c2cc(C(=O)NC3CC3)sc2n1 [Example 60]
56 | < 10 | Nc1nc(C(=NOCCN2CCCC2=O)c2ccc3c(c2)OCO3)c2cc(C(=O)NC3CC3)sc2n1 [Example 61]
57 | < 10 | CCNC(=O)c1cc2c(C(=NOCCN(CC)CC)c3ccc(OC)c(OC)c3)nc(N)nc2s1 [Example 62]
